Data set [1] concerns SW620 cells (metastatic derivative of SW480). Kind of data set: Sulforhodamine B (SRB) cytotoxicity assay, SW620. Format: cell-based, human. To be noted: for SI (selectivity index): IC50 CHO-K1 / IC50 SW620; for IC50: Homo sapiens, SW-620, SRB, mean ± SE. The protocol: (§1) To determine the cytotoxic effect of the synthesized hybrids, they were evaluated against SW480 human colon adenocarcinoma cells, its metastatic derivative SW620 and the non-malignant CHO-K1 cell line, through the sulforhodamine B assay. In this experiment, 5-FU was also included as the reference drug, as well as the parental subunits (curcumin and resveratrol) and the equimolar mixture of these. Cytotoxicity was reported as 50% inhibitory concentration (IC50 values).
(§2) Biological assays were performed using an adenocarcinoma colon cancer cell line (SW480), its metastatic derivative (SW620) and non-malignant cells (CHO-K1). These were obtained from The European Collection of Authenticated Cell Cultures (ECACC, England) and maintained in Dulbecco’s Modified Eagle Medium, supplemented with 10% heat-inactivated (56 °C) horse serum, 1% penicillin/streptomycin and 1% non-essential amino acids (Gibco Invitrogen, Carlsbad, USA). For all experiments, horse serum was reduced to 3%, and the medium was supplemented with […], 5 ng/mL selenium and […] (ITS-defined medium; Gibco, Invitrogen, Carlsbad, CA, USA).
(§3) Cytotoxicity of the synthesized hybrids, lead and reference compounds was evaluated through Sulforhodamine B (SRB) assay, a colorimetric test that is based on staining of total cellular protein of adherent cells. Cells were seeded to a final density of 20,000 cells/well in 96-well tissue culture plates and incubated at 37 °C in a humidified atmosphere at 5% CO2. All cultures were allowed to grow for 24 h, and afterward they were treated with DMSO (vehicle control 1%) or increasing concentrations (0.01–200 µM) of the synthesized hybrids, as well as curcumin and resveratrol (lead compounds), the equimolar mixture of these and 5-fluorouracil (5-FU; the standard drug). After treatment, cells were fixed with trichloroacetic acid (50% v/v) (MERCK) for a period of 1 h at 4 °C. Cell proteins were determined by staining with 0.4% (w/v) SRB (Sigma-Aldrich, United States), and then they were washed with 1% acetic acid for the removal of unbound SRB and left for air-drying. Protein bound SRB was solubilized in 10 mM Tris-base and the absorbance was measured at 492 nm in a microplate reader (Mindray MR-96A). All experiments were performed at least in triplicate.

In data set [2] the test system is non-malignant CHO-K1 cell line. Briefly: Sulforhodamine B (SRB) cytotoxicity assay, non-malignant cells. Format: cell-based. To be noted: Cricetulus griseus, mean ± SE. As for the experimental part:
as §1, §2, §3
For orientation: The SRB assay estimates cell density from bound dye.

In data set [3] the test system is SW480 human colon adenocarcinoma cells. Briefly: Sulforhodamine B (SRB) cytotoxicity assay, SW480. Format: cell-based. To be noted: for SI (selectivity index): IC50 CHO-K1 / IC50 SW480; for IC50: Homo sapiens, SRB, mean ± SE. As for the experimental part:
as §1, §2, §3

The IC50 is the concentration that inhibits the measured activity by half. Low values mean greater potency in that assay, high ones weaker potency in that assay. One may read the melting point as the temperature, or range, at which the solid turns liquid.

Molecule `COc1cc(/C=C/C(=O)c2ccc(/C=C/c3cccc(OC)c3OC)cc2)ccc1O` [Hybrid 3d, (E)-1-(4-((E)-2,3-Dimethoxystyryl)phenyl)-3-(4-hydroxy-3-methoxyphenyl)prop-2-en-1-one] came in with a melting point of 63 to 65 °C. In data set [1] (24 h), the “SI (selectivity index)” value was found to be 0.44 and the IC50 was found to be 70.5 ± 3.8 µM. Also, in data set [1] (48 h), the “SI (selectivity index)” value was 0.48 and the IC50 came out at 26.1 ± 4.24 µM. This molecule also came in with an IC50 in data set [2] (24 h) of 31 ± 2.93 µM. The IC50 in data set [2] (48 h) came to 12.4 ± 3.41 µM. In data set [3] (24 h), the “SI (selectivity index)” value is 0.91. Besides, in data set [3] (48 h), the “SI (selectivity index)” value was determined as 0.49. Inhibition in data set [3] (SW480, 24 h, 24 h) was half-maximal at 34.1 ± 3.92 µM (IC50). This molecule also returned an IC50 in data set [3] (SW480, 48 h, 48 h) of 25.2 ± 3.54 µM.
The molecule `COc1cc(/C=C/C(=O)c2ccc(/C=C/c3c(OC)cccc3OC)cc2)ccc1O` [Hybrid 3g, (E)-1-(4-((E)-2,6-Dimethoxystyryl)phenyl)-3-(4-hydroxy-3-methoxyphenyl)prop-2-en-1-one] came in with a melting point of 87 to 90 °C. In addition, in data set [1] (24 h), the “SI (selectivity index)” value is 2.82 and half-maximal inhibition (IC50) required 33.7 ± 4.2 µM. In addition, in data set [1] (48 h), the “SI (selectivity index)” value was found to be 1.17 and the IC50 came to 27.6 ± 5.21 µM. Besides, inhibition in data set [2] (24 h) was half-maximal at 95 ± 1.67 µM (IC50). The molecule also yielded an IC50 in data set [2] (48 h) of 32.4 ± 5.16 µM. Moreover, the “SI (selectivity index)” value in data set [3] (24 h) was 11.1. Moreover, the “SI (selectivity index)” value in data set [3] (48 h) came to 0.83. Moreover, in data set [3] (SW480, 24 h, 24 h), the IC50 is 8.55 ± 2.47 µM. This molecule gave a half-inhibitory concentration (IC50) in data set [3] (SW480, 48 h, 48 h) of 39.1 ± 5.68 µM.
For the molecule `COc1cc(/C=C/C(=O)CC(=O)/C=C/c2ccc(O)c(OC)c2)ccc1O` [Curcumin], the “SI (selectivity index)” value in data set [1] (24 h) is recorded as 0.12; in data set [1] (48 h) it was 1.63; in data set [3] (24 h), 0.24; in data set [3] (48 h), 0.40.
For the molecule `COc1cc(/C=C/C(=O)c2ccc(/C=C/c3ccc([N+](=O)[O-])cc3)cc2)ccc1O` [Hybrid 3c, (E)-3-(4-hydroxy-3-methoxyphenyl)-1-(4-((E)-4-nitrostyryl)phenyl)prop-2-en-1-one], the melting point is 227 to 230 °C. The molecule also came in with an IC50 in data set [1] (24 h) of over 3000 µM. The IC50 in data set [1] (48 h) was over 3000 µM. The IC50 in data set [2] (24 h) was over 3000 µM. Also, the IC50 in data set [2] (48 h) is over 3000 µM. Also, the “SI (selectivity index)” value in data set [3] (24 h) is recorded as over 100. Also, the “SI (selectivity index)” value in data set [3] (48 h) is over 15. Further, in data set [3] (SW480, 24 h, 24 h), the IC50 came out at 27.5 ± 2 µM. This molecule also showed an IC50 in data set [3] (SW480, 48 h, 48 h) of over 200 µM.
On to `COc1cc(/C=C/c2ccc(C(=O)/C=C/c3ccc(O)c(OC)c3)cc2)cc(OC)c1` [Hybrid 3h, (E)-1-(4-((E)-3,5-Dimethoxystyryl)phenyl)-3-(4-hydroxy-3-methoxyphenyl)prop-2-en-1-one], for which the melting point fell in the range of 49 to 51 °C. In addition, in data set [1] (24 h), the “SI (selectivity index)” value is listed as 1.60 and the IC50 amounted to 61 ± 12.8 µM. In data set [1] (48 h), the “SI (selectivity index)” value was 1.08 and the IC50 came to 21.4 ± 3.29 µM. Besides, the IC50 in data set [2] (24 h) came to 97.4 ± 2.62 µM. Also, half-maximal inhibition in data set [2] (48 h) (IC50) required 23.2 ± 4.07 µM. Also, in data set [3] (24 h), the “SI (selectivity index)” value was determined as 2.06. Moreover, the “SI (selectivity index)” value in data set [3] (48 h) amounted to 0.93. For the same molecule, it took 47.2 ± 8.39 µM to reach half-maximal inhibition in data set [3] (SW480, 24 h, 24 h) (IC50). The IC50 in data set [3] (SW480, 48 h, 48 h) was determined as 24.9 ± 1.65 µM.
Take `Oc1ccc(/C=C/c2cc(O)cc(O)c2)cc1` [Resveratrol]: the “SI (selectivity index)” value in data set [1] (24 h) turned out to be 0.22; in data set [1] (48 h), 0.45; in data set [3] (24 h), 0.77; in data set [3] (48 h), 0.52. For the same molecule, the IC50 turned out to be 549 ± 38.5 µM in data set [1] (24 h); 143 ± 4.03 µM in data set [1] (48 h); 118 ± 8.54 µM in data set [2] (24 h); 64 ± 8.92 µM in data set [2] (48 h); 154 ± 10.6 µM in data set [3] (SW480, 24 h, 24 h); 123 ± 4.48 µM in data set [3] (SW480, 48 h, 48 h).
Consider `COc1cc(/C=C/C(=O)c2ccc(/C=C/c3ccc(O)c(OC)c3)cc2)ccc1O` [Hybrid 3j, (E)-3-(4-Hydroxy-3-methoxyphenyl)-1-(4-((E)-4-hydroxy-3-methoxystyryl)phenyl)prop-2-en-1-one], for which the melting point fell in the range of 142 to 146 °C. Moreover, in data set [1] (24 h), the “SI (selectivity index)” value turned out to be 1.50 and it took 28.1 ± 4.27 µM to reach half-maximal inhibition (IC50). Also, in data set [1] (48 h), the “SI (selectivity index)” value turned out to be 0.84 and the IC50 was 28.8 ± 4.57 µM. The molecule also returned an IC50 in data set [2] (24 h) of 42.1 ± 4.85 µM. This molecule registered an IC50 in data set [2] (48 h) of 24.3 ± 5.21 µM. The “SI (selectivity index)” value in data set [3] (24 h) is 5.28. In addition, the “SI (selectivity index)” value in data set [3] (48 h) is reported as 0.59. This molecule also displayed an IC50 in data set [3] (SW480, 24 h, 24 h) of 7.98 ± 1.53 µM. The IC50 in data set [3] (SW480, 48 h, 48 h) was 41.1 ± 7.8 µM.
In turn, `COc1ccc(OC)c(/C=C/c2ccc(C(=O)/C=C/c3ccc(O)c(OC)c3)cc2)c1` [Hybrid 3f, (E)-1-(4-((E)-2,5-Dimethoxystyryl)phenyl)-3-(4-hydroxy-3-methoxyphenyl)prop-2-en-1-one] showed a melting point of 47 to 51 °C. In data set [1] (24 h), the “SI (selectivity index)” value was 2.36 and 47.4 ± 10.5 µM corresponded to half-maximal inhibition (IC50). For the same molecule, in data set [1] (48 h), the “SI (selectivity index)” value is reported as 0.86 and the IC50 worked out at 27.6 ± 4.99 µM. In data set [2] (24 h), this molecule registered an IC50 of 112 ± 15.8 µM. In data set [2] (48 h), this molecule had an IC50 of 23.9 ± 4.01 µM. Further, the “SI (selectivity index)” value in data set [3] (24 h) came to 1.33. Moreover, the “SI (selectivity index)” value in data set [3] (48 h) came out at 0.27. Besides, the IC50 in data set [3] (SW480, 24 h, 24 h) turned out to be 84.4 ± 5.45 µM. Moreover, the midpoint of inhibition in data set [3] (SW480, 48 h, 48 h), the IC50, lay at 88.6 ± 1.84 µM.
In turn, `COc1ccc(/C=C/c2ccc(C(=O)/C=C/c3ccc(O)c(OC)c3)cc2)cc1` [Hybrid 3b, (E)-3-(4-hydroxy-3-methoxyphenyl)-1-(4-((E)-4-methoxystyryl)phenyl)prop-2-en-1-one] showed a melting point of 187 to 190 °C.
As to `O=c1[nH]cc(F)c(=O)[nH]1` [Hybrid 5-FU, 5-fluorouracil, reference compound], the “SI (selectivity index)” value is reported as 0.59 in data set [1] (24 h), 0.96 in data set [1] (48 h), 0.35 in data set [3] (24 h) and 0.99 in data set [3] (48 h).
For the molecule `COc1cc(/C=C/C(=O)c2ccc(/C=C/c3cc(OC)c(O)c(OC)c3)cc2)ccc1O` [Hybrid 3l, (E)-1-(4-((E)-4-Hydroxy-3,5-dimethoxystyryl)phenyl)-3-(4-hydroxy-3-methoxyphenyl)prop-2-en-1-one], the melting point was in the range of 86 to 88 °C. Moreover, in data set [1] (24 h), the “SI (selectivity index)” value came to 2.63 and the IC50 was 34.2 ± 5.09 µM. Besides, in data set [1] (48 h), the “SI (selectivity index)” value stood at 0.83 and the IC50 came to 29.8 ± 3.68 µM. In data set [2] (24 h), the IC50 amounted to 90 ± 8.55 µM. In data set [2] (48 h), this molecule came in with an IC50 of 24.8 ± 5.53 µM. Moreover, in data set [3] (24 h), the “SI (selectivity index)” value came to 1.42. Besides, the “SI (selectivity index)” value in data set [3] (48 h) amounted to 0.48. In data set [3] (SW480, 24 h, 24 h), this molecule had a half-inhibitory concentration (IC50) of 63.5 ± 8.16 µM. This molecule displayed an IC50 in data set [3] (SW480, 48 h, 48 h) of 51.8 ± 5.85 µM.

The values above are taken from paper PMC8124228, “New Hybrids Based on Curcumin and Resveratrol: Synthesis, Cytotoxicity and Antiproliferative Activity against Colorectal Cancer Cells” (Molecules, 2021).
